20 compounds from patent US9834558B2, “Substituted bridged urea analogs as sirtuin modulators” (GLAXOSMITHKLINE LLC, priority 2013, dated 2017) can be followed below.

SMILES strings stand for the structures. Like-named read-outs stand apart in the source and are kept apart here.

For this experiment, the target named is T1, SIRT1 (Homo sapiens, UniProt Q96EB6).
T1 sequence (Q96EB6 1-747): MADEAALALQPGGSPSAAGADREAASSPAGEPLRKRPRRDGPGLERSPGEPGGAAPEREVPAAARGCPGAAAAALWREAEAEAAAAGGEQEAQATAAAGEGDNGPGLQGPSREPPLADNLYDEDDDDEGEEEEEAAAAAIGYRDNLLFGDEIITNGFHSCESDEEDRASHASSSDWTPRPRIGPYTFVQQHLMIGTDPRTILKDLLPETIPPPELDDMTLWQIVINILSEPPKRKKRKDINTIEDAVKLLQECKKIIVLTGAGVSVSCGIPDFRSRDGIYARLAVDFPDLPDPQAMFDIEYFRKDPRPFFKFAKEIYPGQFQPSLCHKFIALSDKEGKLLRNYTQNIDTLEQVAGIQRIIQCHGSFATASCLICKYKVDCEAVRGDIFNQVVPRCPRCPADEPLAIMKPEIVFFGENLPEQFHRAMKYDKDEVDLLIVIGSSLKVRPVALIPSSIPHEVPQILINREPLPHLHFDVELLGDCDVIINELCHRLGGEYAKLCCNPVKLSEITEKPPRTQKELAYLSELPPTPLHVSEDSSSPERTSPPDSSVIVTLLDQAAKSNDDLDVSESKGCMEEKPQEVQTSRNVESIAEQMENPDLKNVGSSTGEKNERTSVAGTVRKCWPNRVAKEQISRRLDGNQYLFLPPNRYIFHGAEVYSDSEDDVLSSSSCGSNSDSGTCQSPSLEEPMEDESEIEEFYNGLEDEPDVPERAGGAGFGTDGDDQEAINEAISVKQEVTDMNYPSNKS
Nature of the experiment: Trp mass spectrometry assay of SIRT1 activation. In kind it is biochemical. The conditions noted are these: for TRP Activity (EC1.5): EC1.5 = concentration that results in 150% activation of SIRT1; for Emax: read-out: TRP MAX RESP (percent maximum fold activation). A digest of the protocol: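 Activation read-out: mass-spec measurement of O-acetyl-ADP-ribose or deacetylated Trp peptide versus compound-free controls, giving EC1.5 and Percent Maximum Activation. Reactions ran 25 min at 25 °C, pH 7.5, with 120 μM βNAD+, 0.5 μM acetylated p53-derived peptide and 10 nM His-tagged SIRT1.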

[1] abbreviates: Trp peptide assay, maximum activity relative to control (100%).

Regarding `Cc1ccc(-c2ccc3c(n2)N(C(=O)NCC(F)(F)F)[C@H]2CCN3C2)cn1` [(9S)-5-(6-methylpyridin-3-yl)-N-(2,2,2-trifluoroethyl)-1,6,8-triazatricyclo[7.2.1.0^{2,7}]dodeca-2(7),3,5-triene-8-carboxamide], under “Trp peptide assay”, the “TRP Activity (EC1.5)” value is “B (B (EC1.5 1-25 μM))”. Besides, under setting [1], the Emax was above 150%.

Consider `Cc1ccc(-c2ccc3c(n2)N(C(=O)NC2CCCOC2)[C@H]2CCN3C2)cn1` (stereo partly drawn) [(9S)-5-(6-methylpyridin-3-yl)-N-(oxan-3-yl)-1,6,8-triazatricyclo[7.2.1.0^{2,7}]dodeca-2(7),3,5-triene-8-carboxamide], for which the “TRP Activity (EC1.5)” value (Trp peptide assay) is “C (C (EC1.5>25 μM))”. Moreover, under setting [1], the Emax was below 150%.

Turning to `Cc1ccc(-c2ccc3c(n2)N(C(=O)NC2CCOCC2)[C@H]2CCN3C2)cn1` [(9S)-5-(6-methylpyridin-3-yl)-N-(oxan-4-yl)-1,6,8-triazatricyclo[7.2.1.0^{2,7}]dodeca-2(7),3,5-triene-8-carboxamide], under “Trp peptide assay”, the “TRP Activity (EC1.5)” value is reported as “C (C (EC1.5>25 μM))”. Besides, under setting [1], the Emax was below 150%.

For the compound `Cc1ccc(-c2ccc3c(n2)N(C(=O)NC2CCOC2)[C@H]2CCN3C2)cn1` (stereo partly drawn) [(9S)-5-(6-methylpyridin-3-yl)-N-(oxolan-3-yl)-1,6,8-triazatricyclo[7.2.1.0 {2,7}]dodeca-2,4,6-triene-8-carboxamide], the “TRP Activity (EC1.5)” value (Trp peptide assay) is recorded as “C (C (EC1.5>25 μM))”. Also, the Emax under setting [1] is below 150%.

Consider `Cc1ccc(-c2ccc3c(n2)N(C(=O)NC(C)C)[C@H]2CCN3C2)cn1` [(9S)-5-(6-methylpyridin-3-yl)-N-(propan-2-yl)-1,6,8-triazatricyclo[7.2.1.0^{2,7}]dodeca-2,4,6-triene-8-carboxamide], for which the “TRP Activity (EC1.5)” value (Trp peptide assay) was “B (B (EC1.5 1-25 μM))”. The Emax under setting [1] was above 150%.

As to `Cc1ccc(-c2ccc3c(n2)N(C(=O)Nc2ccnc(O[C@H]4CCOC4)n2)[C@H]2CCN3C2)cn1` [(9S)-5-(6-methylpyridin-3-yl)-N-{2-[(3S)-oxolan-3-yloxy]pyrimidin-4-yl}-1,6,8-triazatricyclo[7.2.1.0 {2,7}]dodeca-2,4,6-triene-8-carboxamide], the “TRP Activity (EC1.5)” value (Trp peptide assay) is “B (B (EC1.5 1-25 μM))”. Under setting [1], the Emax is above 150%.

On to `O=C(Nc1cnccn1)N1c2nc(N3CCOCC3)ccc2N2CC[C@H]1C2` [(9S)-5-(morpholin-4-yl)-N-(pyrazin-2-yl)-1,6,8-triazatricyclo[7.2.1.0 {2,7}]dodeca-2,4,6-triene-8-carboxamide], for which the “TRP Activity (EC1.5)” value (Trp peptide assay) is reported as “B (B (EC1.5 1-25 μM))”. For the same compound, under setting [1], the Emax is above 150%.

Consider `O=C(Nc1cnccn1)N1c2nc(N3CCNCC3)ccc2N2CC[C@H]1C2` [(9S)-5-(piperazin-1-yl)-N-(pyrazin-2-yl)-1,6,8-triazatricyclo[7.2.1.0 {2,7}]dodeca-2,4,6-triene-8-carboxamide], for which the “TRP Activity (EC1.5)” value (Trp peptide assay) is listed as “C (C (EC1.5>25 μM))”. In addition, the Emax under setting [1] was below 150%.

Regarding `O=C(Nc1cnccn1)N1c2nc(N3CCCCC3)ccc2N2CC[C@H]1C2` [(9S)-5-(piperidin-1-yl)-N-(pyrazin-2-yl)-1,6,8-triazatricyclo[7.2.1.0 {2,7}]dodeca-2,4,6-triene-8-carboxamide], the “TRP Activity (EC1.5)” value (Trp peptide assay) is “B (B (EC1.5 1-25 μM))”. The Emax under setting [1] was above 150%.

With `CC(CO)NC(=O)c1ccc2c(n1)N(C(=O)Nc1ccccn1)[C@H]1CCN2C1` (stereo partly drawn) [(9S)-5-N-(1-hydroxypropan-2-yl)-8-N-(pyridin-2-yl)-1,6,8-triazatricyclo[7.2.1.0^{2,7}]dodeca-2(7),3,5-triene-5,8-dicarboxamide], the “TRP Activity (EC1.5)” value (Trp peptide assay) is reported as “B (B (EC1.5 1-25 μM))”. For the same compound, the Emax under setting [1] was above 150%.

Take `COCC(C)NC(=O)c1ccc2c(n1)N(C(=O)Nc1ccccn1)[C@H]1CCN2C1` (stereo partly drawn) [(9S)-5-N-(1-methoxypropan-2-yl)-8-N-(pyridin-2-yl)-1,6,8-triazatricyclo[7.2.1.0^{2,7}]dodeca-2(7),3,5-triene-5,8-dicarboxamide]: the “TRP Activity (EC1.5)” value (Trp peptide assay) is “B (B (EC1.5 1-25 μM))”. Moreover, the Emax under setting [1] is above 150%.

With `O=C(NCCO)c1ccc2c(n1)N(C(=O)Nc1ccccn1)[C@H]1CCN2C1` [(9S)-5-N-(2-hydroxyethyl)-8-N-(pyridin-2-yl)-1,6,8-triazatricyclo[7.2.1.0^{2,7}]dodeca-2(7),3,5-triene-5,8-dicarboxamide], the “TRP Activity (EC1.5)” value (Trp peptide assay) is on record as “B (B (EC1.5 1-25 μM))”. The Emax under setting [1] was above 150%.

Turning to `O=C(NCC1CC1)c1ccc2c(n1)N(C(=O)Nc1ccccn1)[C@H]1CCN2C1` [(9S)-5-N-(cyclopropylmethyl)-8-N-(pyridin-2-yl)-1,6,8-triazatricyclo[7.2.1.0 {2,7}]dodeca-2(7),3,5-triene-5,8-dicarboxamide], for the setting “Trp peptide assay”, the “TRP Activity (EC1.5)” value was “A (A (EC1.5<1 μM))”. Besides, the Emax under setting [1] is above 150%.

Take `O=C(NC1CCCOC1)c1ccc2c(n1)N(C(=O)Nc1ccccn1)[C@H]1CCN2C1` (stereo partly drawn) [(9S)-5-N-(oxan-3-yl)-8-N-(pyridin-2-yl)-1,6,8-triazatricyclo[7.2.1.0 {2,7}]dodeca-2(7),3,5-triene-5,8-dicarboxamide]: under “Trp peptide assay”, the “TRP Activity (EC1.5)” value was “B (B (EC1.5 1-25 μM))”. Besides, the Emax under setting [1] is above 150%.

Take `O=C(NC1CCOCC1)c1ccc2c(n1)N(C(=O)Nc1ccccn1)[C@H]1CCN2C1` [(9S)-5-N-(oxan-4-yl)-8-N-(pyridin-2-yl)-1,6,8-triazatricyclo[7.2.1.0 {2,7}]dodeca-2(7),3,5-triene-5,8-dicarboxamide]: for the setting “Trp peptide assay”, the “TRP Activity (EC1.5)” value is given as “B (B (EC1.5 1-25 μM))”. Moreover, the Emax under setting [1] is above 150%.

With `O=C(NC1CCOC1)c1ccc2c(n1)N(C(=O)Nc1ccccn1)[C@H]1CCN2C1` (stereo partly drawn) [(9S)-5-N-(oxolan-3-yl)-8-N-(pyridin-2-yl)-1,6,8-triazatricyclo[7.2.1.0 {2,7}]dodeca-2(7),3,5-triene-5,8-dicarboxamide], the “TRP Activity (EC1.5)” value (Trp peptide assay) was “B (B (EC1.5 1-25 μM))”. Moreover, under setting [1], the Emax is above 150%.

Take `O=C(NC1CCC1)c1ccc2c(n1)N(C(=O)Nc1ccccn1)[C@H]1CCN2C1` [(9S)-5-N-cyclobutyl-8-N-(pyridin-2-yl)-1,6,8-triazatricyclo[7.2.1.0^{2,7}]dodeca-2(7),3,5-triene-5,8-dicarboxamide]: the “TRP Activity (EC1.5)” value (Trp peptide assay) is “A (A (EC1.5<1 μM))”. Moreover, the Emax under setting [1] was above 150%.

Turning to `O=C(NC1CC1)c1ccc2c(n1)N(C(=O)Nc1ccccn1)[C@H]1CCN2C1` [(9S)-5-N-cyclopropyl-8-N-(pyridin-2-yl)-1,6,8-triazatricyclo[7.2.1.0^{2,7}]dodeca-2(7),3,5-triene-5,8-dicarboxamide], the Emax is above 150%. In addition, the “TRP Activity (EC1.5)” value (Trp peptide assay) is recorded as “A (A (EC1.5<1 μM))”.

Consider `CCNC(=O)c1ccc2c(n1)N(C(=O)Nc1ccccn1)[C@H]1CCN2C1` [(9S)-5-N-ethyl-8-N-(pyridin-2-yl)-1,6,8-triazatricyclo[7.2.1.0 {2,7}]dodeca-2(7),3,5-triene-5,8-dicarboxamide], for which, where the note is “Trp peptide assay”, the “TRP Activity (EC1.5)” value is recorded as “A (A (EC1.5<1 μM))”. The Emax under setting [1] is above 150%.

On to `CC(C)n1cc(-c2ccc3c(n2)N(C(=O)Nc2cnccn2)[C@H]2CCN3C2)cn1` [(9S)-5-[1-(propan-2-yl)-1H-pyrazol-4-yl]-N-(pyrazin-2-yl)-1,6,8-triazatricyclo[7.2.1.0 {2,7}]dodeca-2,4,6-triene-8-carboxamide], for which the “TRP Activity (EC1.5)” value (Trp peptide assay) is given as “A (A (EC1.5<1 μM))”. Moreover, the Emax under setting [1] is above 150%.
